Converted amounts (≈) assume the structure as drawn.

For this data set the following is noted: buffer; pH 7.4; 200.0 µM.
A word on the kinetic solubility: it is solubility judged after dilution from a stock solution rather than from solid. Consider `CC(=O)Nc1ccc(NC(=O)/C=C/c2ccc(Cl)cc2)cc1`, for which the kinetic solubility was below 0.3 µg/mL. Take `Cc1ccc(-c2c(=O)n(O)c3ccccc3[n+]2[O-])cc1`: the solubility (kinetic) came to 40.1 µg/mL (≈ 149 µM). `CC(=O)Nc1ccc(NC(=O)COc2ncnc3ccccc23)cc1`: the solubility (kinetic) is above 50.5 µg/mL. On to `O=C(NC1CCN(S(=O)(=O)c2ccc(F)cc2)CC1)c1ccco1`, for which the kinetic solubility is 17.5 µg/mL (≈ 49.7 µM). In turn, `COc1ccc(CNC(=O)CC23CC4CC(CC(C4)C2)C3)cc1` displayed a kinetic solubility of 1.6 µg/mL (≈ 5.1 µM). Against the preceding compound, the solubility kinetic is about 11-fold lower.

Compound `CCC(=O)N(Cc1cc(=O)[nH]c2ccccc12)c1ccccc1OC` showed a kinetic solubility above 50.5 µg/mL. To `O=C(CCNC(=O)c1ccc([N+](=O)[O-])cc1)NCc1cccs1` belongs above 50 µg/mL; to `C=CCn1c(O)c(C(C)=NCCCN(C)C)c(=O)[nH]c1=O`, above 44.2 µg/mL; to `Cc1nn(CCCC(=O)O)c(C)c1[N+](=O)[O-]`, above 34.1 µg/mL. In turn, `Cc1ccc(NC(=S)N(CCN(C)C)C(C)c2cccnc2)cc1` (stereo not drawn) had a solubility (kinetic) above 51.4 µg/mL. Take `CCC(Cc1ccccc1)NC(=O)C1CCCCC1` (stereo not drawn): the kinetic solubility came to 11.6 µg/mL (≈ 44.7 µM).

As for `Cc1ccc(C(C)C)cc1OCC(=O)NC1CCCCCCC1`, the solubility (kinetic) was below 0.7 µg/mL. Turning to `C=CCSc1ncnc2c1oc1nc3c(cc12)COC(C)(C)C3`, the kinetic solubility worked out at 1.3 µg/mL (≈ 3.97 µM). As to `COc1ccc(OC)c2c1sc(=NC(=O)C1CCCCC1)n2C`, the kinetic solubility was below 0.4 µg/mL.

The compound `COc1ccc(SCC2CN(C)CCC2c2ccc(F)cc2)cc1.Cl` (stereo not drawn) yielded a solubility (kinetic) of 32.5 µg/mL.

On to `Cn1cnnc1SCC(=O)Nc1ccccc1F`, for which the solubility (kinetic) is above 39.9 µg/mL. The value for `COC(=O)Cc1c(O)ccn(CCc2ccccc2)c1=O` was above 43.1 µg/mL; that for `O=C(Nc1nc(-c2cccs2)c(C(=O)C(F)(F)F)s1)c1ccco1` was 3.8 µg/mL (≈ 10.2 µM); that for `CCCCC(=O)Nc1ccccc1N1CCN(c2ccccc2)CC1` was 8.1 µg/mL (≈ 24 µM). Compound `C=CCNC(=S)Nc1sc2c(c1C(N)=O)CCCC2` registered a kinetic solubility of 18.2 µg/mL (≈ 61.6 µM). The compound `O=C(O)c1ccc(NS(=O)(=O)c2cc(Cl)sc2Cl)cc1` gave a kinetic solubility above 52.8 µg/mL.

The compound `Cc1cc(C)cc(Nc2ccc(C(=O)O)cc2[N+](=O)[O-])c1` displayed a solubility (kinetic) above 42.9 µg/mL. In turn, `O=C(Nc1ccc(F)cc1F)N1CCN(CCc2ccccc2)CC1` came in with a kinetic solubility of 42.7 µg/mL (≈ 124 µM). The compound `Nc1cc(C(F)(F)F)ccc1OCC1CCCO1` (stereo not drawn) returned a kinetic solubility of 32.8 µg/mL (≈ 126 µM). `O=C(OCC(=O)N1CCc2ccccc21)c1ccccc1F` had a kinetic solubility of 1.7 µg/mL (≈ 5.68 µM).

In the case of `Cc1cccc(C(=O)OCC(=O)N2CCCC2=O)c1O`, the kinetic solubility is above 41.6 µg/mL. `CC1Cc2ccccc2N1C(=O)COc1ccc2c(c1)OCO2` (stereo not drawn) had a kinetic solubility of 43.1 µg/mL (≈ 138 µM). In turn, `NC(=O)C1CCN(C(=O)C2CC(=O)N(c3ccc(F)cc3)C2)CC1` (stereo not drawn) yielded a kinetic solubility of 26.5 µg/mL (≈ 79.5 µM). `COc1ccc(C(=O)Nc2ccc(Nc3ccccc3)cc2)cc1OC`: the solubility (kinetic) was below 0.4 µg/mL. For the compound `O=C(Nc1ccc(Br)cc1)N1CCCC(O)C1` (stereo not drawn), the kinetic solubility is above 44.9 µg/mL.

As for `OC[C@H]1O[C@@H](n2cnc3c(NC4CCCC4)ncnc32)[C@H](O)[C@@H]1O`, the solubility (kinetic) was above 50.3 µg/mL.

`O=C(CN1CCCC1)NCC(=O)Nc1ccc(F)cc1` showed a solubility (kinetic) above 41.9 µg/mL. The compound `COC(=O)c1sccc1NC(=O)c1ccc(OC)c([N+](=O)[O-])c1` returned a solubility (kinetic) below 0.4 µg/mL. In turn, `Cc1ccc(OS(=O)(=O)c2cn(C)c(=O)n(C)c2=O)cc1C` displayed a kinetic solubility above 48.7 µg/mL. Turning to `Cc1cc2c(NC3CCCCC3)ncnc2s1.Cl`, the solubility (kinetic) turned out to be 15 µg/mL.

In turn, `N#Cc1ccc(C(=O)Nc2cc(S(=O)(=O)N3CCOCC3)ccc2N2CCCC2)cc1` yielded a kinetic solubility above 66.1 µg/mL. Compound `CCOc1ccc(NC(=O)COC(=O)CN2CCCCCC2=O)cc1` returned a kinetic solubility above 52.3 µg/mL. On to `Cc1nnc(SCC(=O)NC(=O)NCc2ccco2)s1`, for which the solubility (kinetic) was above 46.9 µg/mL. In turn, `Cl.Fc1cccc(C2NCc3ccccc3-n3cccc32)c1` (stereo not drawn) showed a kinetic solubility of 30.6 µg/mL. Turning to `O=C(NCCOc1ccccc1)C(=O)c1c[nH]c2ccccc12`, the solubility (kinetic) came to 0.9 µg/mL (≈ 2.92 µM). Compound `COCCCNc1nc(N)c([N+](=O)[O-])c(NCC2CCCO2)n1` (stereo not drawn) returned a solubility (kinetic) above 49 µg/mL. The compound `CC1CCCCN1CC(O)c1c[nH]c2ccccc12` (stereo not drawn) came in with a solubility (kinetic) above 38.8 µg/mL. Consider `Cc1ccc(S(=O)(=O)NC2CCSC2=O)cc1C` (stereo not drawn), for which the solubility (kinetic) amounted to 3.1 µg/mL (≈ 10.9 µM).

Turning to `O=c1[nH]cccc1-c1nc2ccccc2n1Cc1ccc(Cl)cc1`, the solubility (kinetic) is above 50.4 µg/mL. As for `Cc1cccc(Nc2ccc(C(=O)O)cc2[N+](=O)[O-])c1C`, the kinetic solubility was above 42.9 µg/mL. For `CSc1ccc(S(=O)(=O)NC2CC2)cc1`, the kinetic solubility was above 36.5 µg/mL. On to `COCCNC(=O)[C@@H]1CSC2c3ccccc3C(=O)N21` (stereo partly drawn), for which the kinetic solubility was above 43.9 µg/mL. To `Nc1cc(N)nc(SCCc2ccccc2)n1` belongs above 36.9 µg/mL.

The compound `Cc1cc(NC(=O)C(C)C)ncc1NC(=O)c1ccco1` yielded a solubility (kinetic) above 43.1 µg/mL. For `Cc1ccc(NC(=O)Nc2cc(C)on2)cc1`, the kinetic solubility worked out at 12.8 µg/mL (≈ 55.4 µM). To `CC(C)Cn1c(N)c(C=O)c(=O)n(C)c1=O` belongs above 33.8 µg/mL; to `O=S(=O)(Nc1nc2ccccc2nc1NCC1CCCO1)c1ccccc1` (stereo not drawn), above 57.7 µg/mL; to `O=C1Nc2cc(Br)ccc2C1(O)c1ccccc1O` (stereo not drawn), above 48 µg/mL. `c1ccc2sc(NCC3CCCO3)nc2c1` (stereo not drawn) showed a kinetic solubility above 35.1 µg/mL.

On to `CCOc1ccc(NC(=O)CNC(=O)c2cccs2)cc1`, for which the kinetic solubility came out at 7.8 µg/mL (≈ 25.6 µM).

For the compound `O=c1o[nH]c(-c2ccccc2)c1-c1ccccc1`, the kinetic solubility stood at 35 µg/mL (≈ 148 µM). Against the preceding compound, the solubility kinetic is about 4.5-fold higher. Compound `O=C(NNC(=O)C1CCC1)c1ccccc1` showed a solubility (kinetic) above 32.7 µg/mL. On to `Cc1ccc(NC(=O)CCC(=O)NNC(=O)C(C)(C)C)c(C)c1`, for which the solubility (kinetic) is above 47.9 µg/mL. To `COc1ccc(-c2c(=O)n(OC)c3ccccc3[n+]2[O-])cc1OC` belongs above 49.2 µg/mL. `O=C(Nc1nccs1)C1CC(=O)N(Cc2ccco2)C1` (stereo not drawn) gave a solubility (kinetic) of 40.7 µg/mL (≈ 140 µM).

`CN=C(c1ccc([N+](=O)[O-])cc1)N1CCCCC1`: the kinetic solubility was above 37.1 µg/mL. `Cc1cn2c(=O)c(C(=O)N3CCN(c4ccccc4F)CC3)cnc2s1`: the solubility (kinetic) is above 55.9 µg/mL. As for `CC1(C)Cc2ccccc2C(CSc2ccccc2C(=O)O)=N1`, the kinetic solubility was 43.1 µg/mL (≈ 132 µM).

On to `CCn1c(SCc2ccccc2)nc2ccccc2c1=O`, for which the kinetic solubility came out at 1.3 µg/mL (≈ 4.39 µM). `Cn1c(N)c(C(=O)COC(=O)c2ccccc2C(=O)c2ccc(Cl)cc2)c(=O)n(C)c1=O` showed a kinetic solubility of 6.3 µg/mL (≈ 13.8 µM). Against the preceding compound, the solubility kinetic is about 4.8-fold higher. The value for `O=C(Cn1c(=O)cnc2ccccc21)Nc1cc(Cl)ccc1N1CCOCC1` was 51.6 µg/mL (≈ 129 µM). In turn, `O=C(c1cccnc1)N1N=C2CCCCCC2C1(O)C(F)(F)F` (stereo not drawn) came in with a kinetic solubility above 49.1 µg/mL. `O=C1c2ccsc2SCCN1Cc1cccc(F)c1` yielded a solubility (kinetic) of 42.6 µg/mL (≈ 145 µM). For `FC(F)(F)c1cccc(CN2CCSCC2)c1`, the kinetic solubility was below 0.6 µg/mL. The value for `O=C(NCCNC(=O)c1ccccc1O)c1ccccc1O` was 32.3 µg/mL (≈ 108 µM).

`COc1ccc(/C=C2\SC(N3CCCCC3)=NC2=O)cc1OC`: the solubility (kinetic) was determined as 8.2 µg/mL (≈ 24.7 µM). Take `Cc1ccc(Nc2c(-c3ccccc3)nc3cnccn23)cc1`: the solubility (kinetic) worked out at 1.1 µg/mL (≈ 3.66 µM). In turn, `Cc1cccc(C)c1NC(=O)COC(=O)C1C2CC3OC(=O)C1C3C2` (stereo not drawn) had a kinetic solubility above 51.5 µg/mL.

`COC(=O)/C(C#N)=C/c1ccc(C)o1` displayed a kinetic solubility of 20.7 µg/mL (≈ 108 µM). Consider `CCN1CCCC1CNC(=O)c1cc2cc(OC)c(OC)cc2[nH]1` (stereo not drawn), for which the solubility (kinetic) is above 49.7 µg/mL.

`Cc1cc2c(cc1C)CN(c1ccccc1)C2` yielded a solubility (kinetic) of 7.1 µg/mL (≈ 31.8 µM).

Turning to `O=C(/C=C(\O)c1ccccc1)C(=O)NNC(=O)c1ccccc1`, the solubility (kinetic) was above 46.5 µg/mL. Take `C=CCCCCCCCCC(=O)Nc1ncccn1`: the solubility (kinetic) was found to be 6.8 µg/mL (≈ 26 µM). `Cc1cc(=S)c2ccccc2[nH]1` registered a solubility (kinetic) of 20.5 µg/mL (≈ 117 µM).

Regarding `CCOC(=O)c1c(C)[nH]c(C)c1C(=O)COC(=O)Cc1ccc(OC)c(OC)c1`, the solubility (kinetic) is above 60.5 µg/mL. The value for `COc1ccc(Nc2nc(C)nc3c2oc2ccccc23)cc1` was 1.7 µg/mL (≈ 5.57 µM). Take `Cc1cc(C)c(NC(=S)NC(CO)(CO)CO)c(C)c1`: the kinetic solubility was above 44.8 µg/mL.

Turning to `CCn1c(C)cc(/C=C2/SC(=O)N(C(C)C(=O)OC)C2=O)c1C` (stereo not drawn), the solubility (kinetic) worked out at 22.3 µg/mL (≈ 66.3 µM). Regarding `Cl.NC(N)=NC(N)=NCCc1ccccc1`, the solubility (kinetic) was above 36.3 µg/mL. The compound `O=C(/C=C/c1ccccc1[N+](=O)[O-])N1CCOCC1` gave a solubility (kinetic) above 39.3 µg/mL.

Compound `Cc1ccc(NC(=O)CN(C)C(=O)CSc2nccn2C)cc1` had a solubility (kinetic) above 49.9 µg/mL.

Regarding `Cc1cccc(-c2nc3cc([N+](=O)[O-])ccc3o2)c1`, the solubility (kinetic) was below 0.3 µg/mL. As for `C=CCn1c(O)c(C(CC)=Nc2ccc3c(c2)CCC3)c(=O)[nH]c1=O`, the kinetic solubility amounted to 1.4 µg/mL (≈ 4.12 µM). In the case of `Cc1ccc(OCc2cc(C(=O)NC3CCCCC3)no2)cn1`, the kinetic solubility was determined as 34 µg/mL (≈ 108 µM).

`COCCCNC(=O)c1cc2cc(Br)ccc2oc1=O` registered a kinetic solubility of 4.4 µg/mL (≈ 12.9 µM). `NC(=O)c1ccc(Nc2ccc3nonc3c2[N+](=O)[O-])cc1` gave a solubility (kinetic) of 17.9 µg/mL (≈ 59.8 µM). `O=c1[nH]c(/C=C/c2ccc3c(c2)OCO3)c([N+](=O)[O-])c(=O)[nH]1` showed a solubility (kinetic) of 19.4 µg/mL (≈ 64 µM). As to `Cc1cccc(NC(=O)Nc2ccc(Cl)c(Cl)c2)n1`, the kinetic solubility was below 0.2 µg/mL.

Compound `Cc1ccc(Nc2nc(-c3ccccc3)c(CC(=O)O)s2)cc1` came in with a kinetic solubility above 48.7 µg/mL. `CCN1CCN(CC(=O)Nc2ccc(C(C)=O)cc2)CC1.Cl` gave a solubility (kinetic) of 45.2 µg/mL. To `C/C(=N\OC(=O)c1ccccc1)c1c(C)nc2cc(C)ccn12` belongs 44.7 µg/mL (≈ 145 µM); to `CC(=O)Nc1ccc(Oc2ccc3c(c2)C(=O)NC3=O)cc1`, 16.9 µg/mL (≈ 57 µM); to `COc1ccccc1CNC(=O)c1cc(-c2cccnc2)nc2ccccc12`, 0.7 µg/mL (≈ 1.89 µM). Regarding `O=C(c1cc2cccc([N+](=O)[O-])c2oc1=O)N1CCOCC1`, the solubility (kinetic) stood at 40.6 µg/mL (≈ 133 µM). Against the preceding compound, the solubility kinetic is about 58-fold higher. With `N/C(=N\OC(=O)CCCc1ccccc1)c1ccccc1Cl`, the solubility (kinetic) turned out to be 11.4 µg/mL (≈ 36 µM). As to `COc1ccc2c(c1)c(C(=O)O)c(C)n2-c1ccccc1`, the kinetic solubility was determined as 38.4 µg/mL (≈ 137 µM). Compared with the last compound, the solubility kinetic is about 3.4-fold higher. The value for `CN(C(=O)c1ccc2c(c1)OCO2)C1CCCCC1` was 38.4 µg/mL (≈ 147 µM); that for `CCOC(=O)c1c(C)[nH]c(C(=O)COC(=O)CCNS(=O)(=O)c2ccc(NC(C)=O)cc2)c1C` was 19.2 µg/mL (≈ 38.9 µM).
